Assay results as given in patent US10334847B2, “Antifungal composition” (The University of Sussex, priority 2014, dated 2019).

Experiments:
[1] = test system: Chalara fraxinea; experiment: Agar plate growth inhibition assay of fungicides against fungi (Chalara fraxinea); format: cell-based; settings: Chalara fraxinea on YPG agar plates, 3-5 days at 30° C.; compounds used separately or in combination
Description: Example 1—Assays Used to Test Fungicides Against Fungi (e.g. Chalara fraxinea)
• 2% Yeast extract • 2% Peptone • 2% D-glucose • 2% agar YPG • 2% Yeast extract • 2% Peptone • 2% Glycerol • 2% agar Fungicide Formulations
Colletochlorin B was synthesised using the methodology described in WO 2013/160670 with reference to FIG. 7. Then, 1 μM of Colletochlorin B is separately combined with […] of each of the following fungicides to produce seven different formulations:— • 1) Metalaxyl—belongs to the phenylamide fungicide family (Sukul, P. and M. Spiteller (2000) “Metalaxyl: persistence, degradation, metabolism, and analytical methods.” Rev Environ Contam Toxicol 164: 1-26); • 2) Azoxystrobin—belongs to the strobilurin family; • 3) DMI (DeMethylation Inhibitor); • 4) CuPC33—A copper based compound; • 5) Boscalid; • 6) Difenconcozole; and • 7) Pyraclostrobin. Methods • 1. Yeast strains are streaked out and grown on YPD agar plates for 3 days at 30° C. • 2. 5 mL of YPD liquid media is inoculated with a fungal strain of interest (e.g. Chalara fraxinea) and grown for 3 days at 30° C. with shaking at 180 rpm. • 3. 1 μL inoculum of the fungal strain is added to 9999 μL YPG liquid media and gently mixed. • 4. […] The degree of inhibition of fungal/yeast growth caused by the inhibitors is then assessed. […]

[2] = test system: S. cerevisiae; experiment: Agar plate growth inhibition assay against S. cerevisiae; format: cell-based; settings: S. cerevisiae on YPG agar plates, 1 μM of each compound, alone or in combination, 3-5 days at 30° C.; FIG. 8
Description: The inventors tested the efficacy of a combination of Colletochlorin B and azoxystrobin on the growth of S. cerevisiae. As in Example 1, Colletochlorin B was synthesised using the methodology described in WO 2013/160670 with reference to FIG. 7.
• 1. S. cerevisiae was streaked out and grown up on YPD agar plates for 3 days at 30° C. • 2. 5 mL of YPG liquid media was inoculated with S. cerevisiae from the YPD plates and grown for 3 days at 30° C. with shaking at 180 rpm to produce a cell culture. • 3. Approximately 5×10^5 cells of the S. cerevisiae were then plated out onto YPG agar plates containing 1 μM Colletochlorin B, or 1 μM azoxystrobin, or a combination of 1 μM Colletochlorin and 1 μM azoxystrobin. • 4. The plates were incubated for 3-5 days at 30° C. • 5. The degree of inhibition of fungal/yeast growth caused by the inhibitors was then assessed.
For each plate, the yeast colony grown in the centre at the top was not grown in the presence of any inhibitor acting as a negative control. However, for the plate shown in FIG. 8A, the colony shown on the lower left was grown in the presence of only 1 μM Colletochlorin B, and for the plate shown in FIG. 8B, the colony shown on the lower left was grown in the presence of only 1 μM azoxystrobin. […]

[3] = test system: cytochrome bc1 complex; settings: disclosed in WO 2013/160670; cited from earlier work
[4] = test system: microbial alternative oxidase (AOX); settings: disclosed in WO 2013/160670; cited from earlier work

SMILES | degree of inhibition of fungal growth [1] | degree of inhibition of fungal/yeast growth [2] | inhibition of cytochrome bc1 complex [3] | inhibition of AOX [4]
CO/C=C(/C(=O)OC)c1ccccc1Oc1cc(Oc2ccccc2C#N)ncn1 [Azoxystrobin, reference compound] | partial growth inhibition | partial growth inhibition |  | 
CC(C)=CCC/C(C)=C/Cc1c(O)c(Cl)c(C)c(C=O)c1O [Colletochlorin B] | partial growth inhibition | partial growth inhibition | particularly effective inhibition | particularly effective inhibition
